Assay results reported in patent EP2530078A1, “THIAZOLE DERIVATIVE” (Takeda Pharmaceutical Company Limited, priority 2010, dated 2011).

Each molecule was assayed against T1, human GPR52 (Homo sapiens, UniProt Q9Y2T5) (assay: Increase of intracellular cAMP concentration in human GPR52-expressing CHO cell (AlphaScreen cAMP assay)). Conditions: 0.5 h; test compound 10 µm, 37°C, 30 min, human GPR52-expressing CHO(dhfr-) cells; 100% = cAMP with 1 µM N-(2-hydroxyethyl)-3-[2-[3-(trifluoromethyl)benzyl]-1-benzofuran-4-yl]benzamide, 0% = DMSO; read-out: GPR52 agonist activity (%).
T1 construct: expressed in transfected cells; host or cells: CHO(dhfr-) cells
T1 sequence (Q9Y2T5 whole entry): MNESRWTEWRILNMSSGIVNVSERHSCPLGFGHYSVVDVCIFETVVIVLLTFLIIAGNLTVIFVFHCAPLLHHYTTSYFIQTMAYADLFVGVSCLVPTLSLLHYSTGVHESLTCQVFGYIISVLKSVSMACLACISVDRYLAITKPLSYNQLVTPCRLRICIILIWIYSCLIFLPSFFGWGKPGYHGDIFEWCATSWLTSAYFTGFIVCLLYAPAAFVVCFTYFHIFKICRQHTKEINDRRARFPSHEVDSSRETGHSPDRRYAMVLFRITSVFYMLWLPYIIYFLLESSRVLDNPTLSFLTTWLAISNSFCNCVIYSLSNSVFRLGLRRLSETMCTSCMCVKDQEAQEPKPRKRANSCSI
Assay type: cell-based
Description: Increase of intracellular cAMP concentration in human GPR52-expressing CHO cell
Using OptiPlate-384 (PerkinElmer Inc.), 1×10^4 human GPR52-expressing CHO(dhfr-) cells were incubated together with a test compound ([…]) in an assay buffer (30 µL, HBSS (containing Ca^2+ and Mg^2+), 0.5% BSA, 100 µM IBMX, 100 µM Ro20-1724, 5 mM HEPES (pH 7.55)) at 37°C for 30 min. Thereafter, according to the protocol of AlphaScreen cAMP Assay Kit (PerkinElmer Inc.), the intracellular cAMP concentration was measured by EnVision (PerkinElmer Inc.). The GPR52 agonist activity was calculated, assuming the intracellular cAMP concentration in the presence of 1 µM N-(2-hydroxyethyl)-3-[2-[3-(trifluoromethyl)benzyl]-1-benzofuran-4-yl]benzamide to be 100% and assuming the intracellular cAMP concentration when DMSO was added instead of the test compound to be 0%.
With Cc1nc(Cc2cc(F)cc(Cl)c2)sc1NC(=O)c1cc([N+](=O)[O-])nn1C [Example 158, N-[2-(3-chloro-5-fluorobenzyl)-4-methyl-1,3-thiazol-5-yl]-1-methyl-3-nitro-1H-pyrazole-5-carboxamide] the activation at 10 µM was 69%. With CCOC(=O)c1cc(C(=O)Nc2sc(Cc3cc(F)cc(Cl)c3)nc2C)n(C)n1 [Example 159, ethyl 5-{[2-(3-chloro-5-fluorobenzyl)-4-methyl-1,3-thiazol-5-yl]carbamoyl}-1-methyl-1H-pyrazole-3-carboxylate] the activation at 10 µM was 71%. For Cc1nc(Cc2ccc(F)c(F)c2)sc1NC(=O)c1ccnn1C [Example 160, N-[2-(3,4-difluorobenzyl)-4-methyl-1,3-thiazol-5-yl]-1-methyl-1H-pyrazole-5-carboxamide], the activation at 10 µM was 74%. For COCCn1nccc1C(=O)Nc1sc(Cc2cc(F)cc(Cl)c2)nc1C [Example 161, N-[2-(3-chloro-5-fluorobenzyl)-4-methyl-1,3-thiazol-5-yl]-1-(2-methoxyethyl)-1-pyrazole-5-carboxamide], the activation at 10 µM was 81%. With Cc1nc(Cc2cc(F)cc(Cl)c2)sc1NC(=O)c1ccnn1CC(C)C [Example 162, N-[2-(3-chloro-5-fluorobenzyl)-4-methyl-1,3-thiazol-5-yl]-1-(2-methylpropyl)-1H-pyrazole-5-carboxamide] the activation at 10 µM was 70%. Work on Cc1nc(Cc2cc(F)cc(Cl)c2)sc1NC(=O)c1ccnn1CC(F)(F)F [Example 163, N-[2-(3-chloro-5-fluorobenzyl)-4-methyl-1,3-thiazol-5-yl]-1-(2,2,2-trifluoroethyl)-1H-pyrazole-5-carboxamide] yielded an activation at 10 µM of 78%. Cc1nc(Cc2cc(F)cc(Cl)c2)sc1NC(=O)c1cc(C(N)=O)nn1C [Example 164, N^5-[2-(3-chloro-5-fluorobenzyl)-4-methyl-1,3-thiazol-5-yl]-1-methyl-1H-pyrazole-3,5-dicarboxamide] gave an activation at 10 µM of 80%. For Cc1nc(Cc2cc(F)cc(Cl)c2)sc1NC(=O)c1cc(CO)nn1C [Example 166, N-[2-(3-chloro-5-fluorobenzyl)-4-methyl-1,3-thiazol-5-yl]-3-(hydroxymethyl)-1-methyl-1H-pyrazole-5-carboxamide], the activation at 10 µM was 88%. In the case of Cc1nc(Cc2cc(F)cc(Cl)c2)sc1NC(=O)c1ccc(=O)n(C)c1 [Example 167, N-[2-(3-chloro-5-fluorobenzyl)-4-methyl-1,3-thiazol-5-yl]-1-methyl-6-oxo-1,6-dihydropyridine-3-carboxamide], the activation at 10 µM is reported as 70%. Work on Cc1nc(Cc2cc(F)cc(Cl)c2)sc1NC(=O)c1nc([N+](=O)[O-])cn1C [Example 169, N-[2-(3-chloro-5-fluorobenzyl)-4-methyl-1,3-thiazol-5-yl]-1-methyl-4-nitro-1H-imidazole-2-carboxamide] yielded an activation at 10 µM of 76%. In the case of Cc1nc(Cc2cc(F)cc(Cl)c2)sc1NC(=O)c1cnn(C)c1 [Example 171, N-[2-(3-chloro-5-fluorobenzyl)-4-methyl-1,3-thiazol-5-yl]-1-methyl-1H-pyrazole-4-carboxamide], the activation at 10 µM is reported as 70%. Cc1nc(Cc2cc(F)cc(Cl)c2)sc1NC(=O)C1(S(C)(=O)=O)CC1 [Example 172, N-[2-(3-chloro-5-fluorobenzyl)-4-methyl-1,3-thiazol-5-yl]-1-(methylsulfonyl)cyclopropanecarboxamide] showed an activation at 10 µM of 89%. COCCNC(=O)C1(C(=O)Nc2sc(Cc3cc(F)cc(Cl)c3)nc2C)CC1 [Example 175, N-[2-(3-chloro-5-fluorobenzyl)-4-methyl-1,3-thiazol-5-yl]-N'-(2-methoxyethyl)cyclopropane-1,1-dicarboxamide] was tested, and the activation at 10 µM was 71%. For CC(=O)Nc1cn(C)c(C(=O)Nc2sc(Cc3cc(F)cc(Cl)c3)nc2C)n1 [Example 176, 4-(acetylamino)-N-[2-(3-chloro-5-fluorobenzyl)-4-methyl-1,3-thiazol-5-yl]-1-methyl-1H-imidazole-2-carboxamide], the activation at 10 µM was 99%. For CCc1cc(C(=O)Nc2sc(Cc3cc(F)cc(Cl)c3)nc2C)n(C)n1 [Example 177, N-[2-(3-chloro-5-fluorobenzyl)-4-methyl-1,3-thiazol-5-yl]-3-ethyl-1-methyl-1H-pyrazole-5-carboxamide], the activation at 10 µM was 86%. With Cc1nc(Cc2cc(F)cc(Cl)c2)sc1NC(=O)c1c(C)ncn1C [Example 179, N-[2-(3-chloro-5-fluorobenzyl)-4-methyl-1,3-thiazol-5-yl]-1,4-dimethyl-1H-imidazole-5-carboxamide] the activation at 10 µM was 80%. Work on Cc1nc(Cc2cc(F)cc(Cl)c2)sc1NC(=O)c1ncn(C)c1C [Example 180, N-[2-(3-chloro-5-fluorobenzyl)-4-methyl-1,3-thiazol-5-yl]-1,5-dimethyl-1H-imidazole-4-carboxamide] yielded an activation at 10 µM of 75%. Work on Cc1nc(Cc2cc(F)cc(C(F)(F)F)c2)sc1NC(=O)c1ccnn1C [Example 181, N-{2-[3-fluoro-5-(trifluoromethyl)benzyl]-4-methyl-1,3-thiazol-5-yl}-1-methyl-1H-pyrazole-5-carboxamide] yielded an activation at 10 µM of 91%. In the case of Cc1nc(Cc2cc(F)cc(Cl)c2)sc1NC(=O)c1scnc1C [Example 184, N-[2-(3-chloro-5-fluorobenzyl)-4-methyl-1,3-thiazol-5-yl]-4-methyl-1,3-thiazole-5-carboxamide], the activation at 10 µM is reported as 87%. In the case of Cc1nc(Cc2cc(F)cc(Cl)c2)sc1NC(=O)c1cccn1C [Example 185, N-[2-(3-chloro-5-fluorobenzyl)-4-methyl-1,3-thiazol-5-yl]-1-methyl-1H-pyrrole-2-carboxamide], the activation at 10 µM is reported as 81%. Cc1nc(Cc2cc(F)cc(Cl)c2)sc1NC(=O)c1c(C)noc1C [Example 186, N-[2-(3-chloro-5-fluorobenzyl)-4-methyl-1,3-thiazol-5-yl]-3,5-dimethylisoxazole-4-carboxamide] showed an activation at 10 µM of 94%. Cc1nc(Cc2cc(F)cc(Cl)c2)sc1NC(=O)c1c(Cl)cnn1C [Example 206, 4-chloro-N-[2-(3-chloro-5-fluorobenzyl)-4-methyl-1,3-thiazol-5-yl]-1-methyl-1H-pyrazole-5-carboxamide] gave an activation at 10 µM of 74%. Cc1nc(Cc2cc(F)cc(Cl)c2)sc1NC(=O)C1CCS(=O)(=O)CC1 [Example 208, N-[2-(3-chloro-5-fluorobenzyl)-4-methyl-1,3-thiazol-5-yl]-tetrahydro-2H-thiopyran-4-carboxamide 1,1-dioxide] showed an activation at 10 µM of 72%. For Cc1nc(C(O)c2cccc(C(F)(F)F)c2)sc1NC(=O)c1ccnn1C (stereo not shown) [Example 210, N-(2-{hydroxy[3-(trifluoromethyl)phenyl]methyl}-4-methyl-1,3-thiazol-5-yl)-1-methyl-1H-pyrazole-5-carboxamide], the activation at 10 µM was 82%. Molecule Cc1nc(Cc2cc(F)cc(Cl)c2)sc1NC(=O)C1CCS(=O)(=O)C1 (stereo not shown) [Example 216, N-[2-(3-chloro-5-fluorobenzyl)-4-methyl-1,3-thiazol-5-yl]-tetrahydrothiophene-3-carboxamide 1,1-dioxide] has an activation at 10 µM of 77%. In the case of COc1cccc(Cc2nc(C)c(NC(=O)c3ccnn3C)s2)c1 [Example 219, N-[2-(3-methoxybenzyl)-4-methyl-1,3-thiazol-5-yl]-1-methyl-1H-pyrazole-5-carboxamide], the activation at 10 µM is reported as 82%. Work on Cc1nc(Cc2cc(F)cc(F)c2)sc1NC(=O)c1ccnn1C [Example 220, N-[2-(3,5-difluorobenzyl)-4-methyl-1,3-thiazol-5-yl]-1-methyl-1H-pyrazole-5-carboxamide] yielded an activation at 10 µM of 79%. Molecule Cc1cccc(Cc2nc(C)c(NC(=O)c3ccnn3C)s2)c1 [Example 221, 1-methyl-N-[4-methyl-2-(3-methylbenzyl)-1,3-thiazol-5-yl]-1H-pyrazole-5-carboxamide] has an activation at 10 µM of 90%. Cc1nc(Cc2cccc(Br)c2)sc1NC(=O)c1ccnn1C [Example 224, N-[2-(3-bromobenzyl)-4-methyl-1,3-thiazol-5-yl]-1-methyl-1H-pyrazole-5-carboxamide] gave an activation at 10 µM of 80%. Cc1nc(Cc2cccc(C3CC3)c2)sc1NC(=O)c1ccnn1C [Example 227, N-[2-(3-cyclopropylbenzyl)-4-methyl-1,3-thiazol-5-yl]-1-methyl-1H-pyrazole-5-carboxamide] gave an activation at 10 µM of 101%. Cc1nc(Cc2cc(F)cc(Cl)c2)sc1NC(=O)c1cccc(S(C)(=O)=O)c1 [Example 228, N-[2-(3-chloro-5-fluorobenzyl)-4-methyl-1,3-thiazol-5-yl]-3-(methylsulfonyl)benzamide] showed an activation at 10 µM of 69%. In the case of Cc1nc(Cc2cc(F)cc(Cl)c2)sc1NC(=O)c1cc(CC#N)nn1C [Example 230, N-[2-(3-chloro-5-fluorobenzyl)-4-methyl-1,3-thiazol-5-yl]-3-(cyanomethyl)-1-methyl-1H-pyrazole-5-carboxamide], the activation at 10 µM is reported as 71%. Cc1nc(Cc2cccc(S(C)(=O)=O)c2)sc1NC(=O)c1ccnn1C [Example 233, 1-methyl-N-{4-methyl-2-[3-(methylsulfonyl)benzyl]-1,3-thiazol-5-yl}-1H-pyrazole-5-carboxamide] was tested, and the activation at 10 µM was 81%. With Cc1nc(Cc2cc(F)cc(Cl)c2)sc1NC(=O)c1ccnn1CC(N)=O [Example 234, 1-(carbamoylmethyl)-N-[2-(3-chloro-5-fluorobenzyl)-4-methyl-1,3-thiazol-5-yl]-1H-pyrazole-5-carboxamide] the activation at 10 µM was 78%.
